Laboratory results as given in ChEMBL document CHEMBL1156193, “Discovery of a long-acting, peripherally selective inhibitor of catechol-O-methyltransferase” (2010).
Activity calls are given as the source filed them. No cut-off for these calls is given here.

Columns and labels:
[1] = Cytotoxicity against mouse Neuro2a cells assessed as cell viability at 30 uM after 24 hrs; type: functional; conditions: N2a, read-out: Activity
[2] = system: Rattus norvegicus; assay: Inhibition of COMT in po dosed Wistar rat liver homogenates assessed as metanephrine formation measured up to 3 hrs relative to control; type: functional
[3] = system: Rattus norvegicus; assay: Inhibition of COMT in Wistar rat liver homogenates assessed as metanephrine formation at 3 mg/kg, po measured after 1 hr; type: functional, organism-based; set-up: dose 3 mg/kg
[4] = system: Rattus norvegicus; assay: Inhibition of COMT in Wistar rat brain homogenates assessed as metanephrine formation at 3 mg/kg, po measured after 1 hr; type: functional, organism-based; set-up: dose 3 mg/kg
[5] = system: Rattus norvegicus; assay: Inhibition of COMT in Wistar rat liver homogenates assessed as metanephrine formation at 3 mg/kg, po measured after 3 hrs; type: functional, organism-based; set-up: dose 3 mg/kg
[6] = system: Rattus norvegicus; assay: Inhibition of COMT in Wistar rat brain homogenates assessed as metanephrine formation at 3 mg/kg, po measured after 3 hrs; type: functional, organism-based; set-up: dose 3 mg/kg
[7] = system: Rattus norvegicus; assay: Inhibition of central COMT in Wistar rat liver homogenates assessed as metanephrine formation at 3 mg/kg, po measured after 9 hrs; type: functional; conditions: Brain, in the assay text read “rat brain homogenates” for “rat liver homogenates”
[8] = system: Rattus norvegicus; assay: Inhibition of central COMT in Wistar rat brain homogenates assessed as metanephrine formation at 3 mg/kg, po measured after 9 hrs; type: functional
[9] = system: Rattus norvegicus; assay: Inhibition of COMT in Wistar rat plasma assessed as increase L-DOPA level at 3 mg/kg, po co-administered with L-dopa and benserazide measured after 2 hrs by HPLC analysis; type: functional
[10] = system: Rattus norvegicus; assay: Inhibition of COMT in Wistar rat plasma assessed as increase L-DOPA level at 3 mg/kg, po co-administered with L-dopa and benserazide measured after 7 hrs by HPLC analysis; type: functional
[11] = system: Rattus norvegicus; assay: Inhibition of COMT in Wistar rat plasma assessed as increase L-DOPA level at 3 mg/kg, po co-administered with L-dopa and benserazide measured after 24 hrs by HPLC analysis; type: functional, organism-based; set-up: dose 3 mg/kg
[12] = system: Rattus norvegicus; assay: Inhibition of COMT in Wistar rat plasma assessed as decrease in 3-O-methyl-L-Dopa level at 3 mg/kg, po co-administered with L-dopa and benserazide measured after 2 hrs by HPLC analysis; type: functional, organism-based; set-up: dose 3 mg/kg
[13] = system: Rattus norvegicus; assay: Inhibition of COMT in Wistar rat plasma assessed as decrease in 3-O-methyl-L-Dopa level at 3 mg/kg, po co-administered with L-dopa and benserazide measured after 7 hrs by HPLC analysis; type: functional, organism-based; set-up: dose 3 mg/kg
[14] = species: Rattus norvegicus; conditions: Wistar, Liver, 3 mg/kg
[15] = system: Rattus norvegicus; assay: Inhibition of peripheral COMT in Wistar rat liver homogenates assessed as metanephrine formation at 3 mg/kg, po measured after 9 hrs
[16] = system: Rattus norvegicus; assay: Inhibition of COMT in Wistar rat liver homogenates assessed as metanephrine formation at 3 mg/kg, po measured after 3 hrs relative to control; values are per cent of control
[17] = system: Mus musculus; assay: Inhibition of COMT in NMRI mouse liver homogenates assessed as metanephrine formation at 3 mg/kg, po measured after 3 hrs relative to control; values are per cent of control
[18] = system: Mus musculus; assay: Inhibition of COMT in NMRI mouse liver homogenates assessed as metanephrine formation at 30 mg/kg, po measured after 6 hrs relative to control; values are per cent of control
[19] = system: Rattus norvegicus; assay: Inhibition of central COMT in Wistar rat brain homogenates assessed as metanephrine formation at 3 mg/kg, po measured up to 24 hrs; type: functional, organism-based; set-up: dose 3 mg/kg
[20] = system: Rattus norvegicus; assay: Inhibition of peripheral COMT in Wistar rat liver homogenates assessed as metanephrine formation at 3 mg/kg, po measured after 24 hrs; type: functional
[21] = system: Rattus norvegicus; assay: Inhibition of peripheral COMT in Wistar rat brain homogenates assessed as metanephrine formation at 3 mg/kg, po measured after 24 hrs; type: functional; conditions: Liver, in the assay text read “rat liver homogenates” for “rat brain homogenates”
[22] = system: Rattus norvegicus; assay: Inhibition of COMT in Wistar rat plasma assessed as decrease in 3-O-methyl-L-Dopa level at 3 mg/kg, po co-administered with L-dopa and benserazide measured after 24 hrs by HPLC analysis; type: functional, organism-based; set-up: dose 3 mg/kg
[23] = system: Rattus norvegicus; assay: Inhibition of COMT in Wistar rat plasma assessed as decrease in 3-O-methyl-L-Dopa level at 3 mg/kg, po co-administered with L-dopa and benserazide measured after 2 hrs by HPLC analysis relative to control; type: functional
[24] = system: Rattus norvegicus; assay: Inhibition of central COMT in Wistar rat brain homogenates assessed as metanephrine formation at 3 mg/kg, po measured up to 24 hrs

Q: Which viability at 30 µM [1] does the source give for Cc1ccc(C(=O)c2cc(O)c(O)c([N+](=O)[O-])c2)cc1 [TOLCAPONE] here?
A: 27.2%

Q: What about the ED50 [2] of the same compound?
A: 1.77 mg/kg

Q: And the Activity [3]?
A: Active

Q: And the inhibition [4]?
A: Active

Q: And the inhibition [5]?
A: Active

Q: What about the inhibition [6] of the same compound?
A: Active

Q: What about the inhibition in vivo at 3 mg/kg [7] of the same compound?
A: 50%

Q: And the inhibition in vivo at 3 mg/kg [8]?
A: 50%

Q: What about the “fold change (FC)” value [9] of the same compound?
A: 3

Q: And the fold change (FC) [10]?
A: 2

Q: And the inhibition [11]?
A: inactive

Q: And the inhibition [12]?
A: Active

Q: What about the inhibition [13] of the same compound?
A: Active

Q: And the inhibition [14]?
A: inactive

Q: And the inhibition [15]?
A: inactive

Q: And the level, % of control at 3 mg/kg [16]?
A: 23.8%

Q: What about the level, % of control at 3 mg/kg [17] of the same compound?
A: 15.1%

Q: What about the level, % of control at 30 mg/kg [18] of the same compound?
A: 6.8%

Q: For Cc1c(Cl)c(C)[n+]([O-])c(Cl)c1-c1noc(-c2cc(O)c(O)c([N+](=O)[O-])c2)n1 [OPICAPONE], which viability at 30 µM [1] is on record?
A: 86.6%

Q: What about the ED50 [2] of the same compound?
A: 1.05 mg/kg

Q: And the inhibition [3]?
A: Active

Q: What about the inhibition [5] of the same compound?
A: Active

Q: And the inhibition [19]?
A: inactive

Q: And the inhibition in vivo at 3 mg/kg [20]?
A: 50%

Q: And the inhibition in vivo at 3 mg/kg [21]?
A: 50%

Q: And the “fold change (FC)” value [9]?
A: 2

Q: What about the inhibition [22] of the same compound?
A: Active

Q: And the inhibition in vivo at 3 mg/kg [23]?
A: 50%

Q: What about the inhibition [24] of the same compound?
A: inactive

Q: What about the level, % of control at 3 mg/kg [16] of the same compound?
A: 0.7%
